Legend:
[1] = system: mixed lymphocyte reaction (PBMC with allogeneic PBMC or Eppstein-Barr Virus-transformed human B cells as stimulator cells); test: Mixed lymphocyte reaction (MLR) assay; type: cell-based; conditions: lowest concentration giving 50% suppression of the MLR; [3H]-thymidine
Description: Pteridine derivatives were first dissolved (10 mM) in dimethylsulfoxide (hereinafter referred as DMSO) and further diluted in culture medium before use for the following in vitro experiments. The commercially available culture medium consisted of RPMI-1640+10% foetal calf serum (FCS). Some pteridine derivatives described in the previous examples (as indicated in table 1) were tested in the following mixed lymphocyte reaction (MLR) assay.
Peripheral blood mononuclear cells (hereinafter referred as PBMC) were isolated from heparinized peripheral blood by density gradient centrifugation over Lymphoprep (Nycomed, Maorstua, Norway). Allogeneic PBMC or Eppstein-Barr Virus-transformed human B cells [commercially available under the trade name RPM11788 (ATCC name CCL156)] which strongly express B7-1 and B7-2 antigens were used as stimulator cells after irradiation with 30 Gy. MLR was performed in triplicate wells. After 5 days incubation at 37° C., 1 μCi [^3H]-thymidine was added to each cup. After a further 16 hours incubation, cells were harvested and counted in a […]. Inhibition of proliferation by a compound (drug) described in some of the previous examples was counted using the formula: [formula] wherein cpm is the thymidine count per minute. The MLR assay is regarded by those skilled in the art as an in vitro analogue of the transplant rejection since it is based on the recognition of allogeneic major histocompatibility antigens on the stimulator leukocytes, by responding lymphocytes.

[2] = system: production of TNF-α by PBMC in response to stimulation by LPS; test: TNF-α assay; type: cell-based, human; conditions: LPS 1 μg/ml, 72 hours, sandwich ELISA
Description: Peripheral blood mononuclear cells (herein referred as PBMC), in response to stimulation by lipopolysaccharide (hereinafter LPS), a gram-negative bacterial endotoxin, produce various […], in particular human TNF-α. Inhibition of the activation of PBMC can therefore be measured by the level of suppression of the production of TNF-α by PBMC in response to stimulation by LPS.
Such inhibition measurement was performed as follows: PBMC were isolated from heparinized peripheral blood by density gradient centrifugation over Lymphoprep (commercially available from Nycomed, Norway). LPS was then added to the PMBC suspension in complete medium (10^6 cells/ml) at a final concentration of 1 μg/ml. The pteridine derivative to be tested was added at different concentrations (0.1 μM, 1 μM and 10 μM) and the cells were incubated at 37° C. for 72 hours in 5% CO2. The supernatants were collected, then TNF-α concentrations were measured with respectively an anti-TNF-α antibody in a sandwich ELISA (Duo Set ELISA human TNFα, commercially available from R&D Systems, United Kingdom). The calorimetric reading of the ELISA was measured by a Multiskan RC plate reader (commercially available from ThermoLabsystems, Finland) at 450 nm (reference wavelength: 690 nm). Data analysis was performed with Ascent software 2.6. (also from ThermoLabsystems, Finland): a standard curve (recombinant human TNFα) was drawn and the amount (pg/ml) of each sample on the standard curve was determined.
The % suppression of human TNFα production by the pteridine derivatives of the invention (drugs) was calculated using the formula: [formula]

`COc1ccc(-c2cnc3nc(N)nc(N4CCN(CCC#N)CC4)c3n2)cc1OC` [Example 163, 2-amino-6-(3,4-dimethoxyphenyl)-4-(4-(3-propionitril)-piperazin-1-yl)pteridine] showed an IC50 [1] of 500 nM and an IC50 [2] of 500 nM.

In the case of `CCN(CC)C(=O)N1CCN(c2nc(N)nc3ncc(-c4ccc(OC)c(OC)c4)nc23)CC1` [Example 14, 2-amino-4-[(N-diethylcarbamoyl)-piperazin-1-yl]-6-(3,4-dimethoxy-phenyl)pteridine], the IC50 [1] is reported as 200 nM and the IC50 [2] is reported as 60 nM.

`COc1ccc(-c2cnc3nc(N)nc(N4CCN(S(=O)(=O)c5ccccc5)CC4)c3n2)cc1OC` [Example 31, 2-amino-4-[(N-phenylsulfonyl)-piperazin-1-yl]-6-(3,4-dimethoxy-phenyl)pteridine] gave an IC50 [1] of 3000 nM and an IC50 [2] of 500 nM.

With `COc1ccc(-c2cnc3nc(N)nc(N4CCN(S(=O)(=O)Cc5ccccc5)CC4)c3n2)cc1OC` [Example 43, 2-amino-4-[(N-benzylsulfonyl)-piperazin-1-yl]-6-(3,4-dimethoxyphenyl)pteridine] the IC50 [1] was 200 nM and the IC50 [2] was 700 nM.

Work on `COc1ccc(-c2cnc3nc(N)nc(N4CCN(Cc5ccccn5)CC4)c3n2)cc1OC` [Example 177, 2-amino-6-(3,4-dimethoxyphenyl)-4-((2-pyridyl)methyl-piperazin-1-yl)pteridine] yielded an IC50 [1] of 800 nM and an IC50 [2] of 90 nM.

With `CCC(=O)N1CCN(c2nc(N)nc3ncc(-c4ccc(OC)c(OC)c4)nc23)CC1` [Example 9, 2-amino-4-[(N-propionyl)-piperazin-1-yl]-6-(3,4-dimethoxyphenyl)pteridine] the IC50 [1] was 500 nM and the IC50 [2] was 140 nM.

`COc1ccc(-c2cnc3nc(N)nc(N4CCN(C(=O)Nc5ccccc5)CC4)c3n2)cc1OC` [Example 99, 2-amino-4-(N-phenyl-carbamoyl-piperazin-1-yl)-6-(3,4-dimethoxyphenyl)pteridine] was tested, and the IC50 [1] was 3.4 nM and the IC50 [2] was 90 nM.

Molecule `COc1ccc(-c2cnc3nc(N)nc(N4CCN(C(=O)Cc5ccc(Cl)cc5)CC4)c3n2)cc1OC` [Example 45, 2-amino-4-[N-(4-chlorophenylacetyl)-piperazin-1-yl]-6-(3,4-dimethoxy-phenyl)pteridine] has an IC50 [1] of 90 nM and an IC50 [2] of 400 nM.

With `COc1ccc(-c2cnc3nc(N)nc(N4CCN(C(=O)Nc5cccc(Cl)c5)CC4)c3n2)cc1OC` [Example 193, 2-amino-4-(N-3-chloro-phenyl-carbamoyl-piperazin-1-yl)-6-(3,4-dimethoxyphenyl)pteridine] the IC50 [1] was 36 nM and the IC50 [2] was 500 nM.

`COc1ccc(-c2cnc3nc(NCCc4ccccc4)nc(N)c3n2)cc1OC` [Example 79, 2-phenylethylamino-4-amino-6-(3,4-dimethoxyphenyl)pteridine] showed an IC50 [1] of 4100 nM and an IC50 [2] of 9800 nM.

For `COc1ccc(-c2cnc3nc(N)nc(N4CCN(Cc5c(Cl)cccc5Cl)CC4)c3n2)cc1OC` [Example 137, 2-amino-4-[(2,6-dichlorobenzyl)piperazin-1-yl]-6-(3,4-dimethoxyphenyl)pteridine], the IC50 [1] was 7600 nM and the IC50 [2] was 700 nM.

For `COc1cccc(C(=O)N2CCN(c3nc(N)nc4ncc(-c5ccc(OC)c(OC)c5)nc34)CC2)c1` [Example 26, 2-amino-4-[N-(3-methoxybenzoyl)piperazin-1-yl]-6-(3,4-dimethoxy-phenyl)pteridine], the IC50 [1] was 500 nM and the IC50 [2] was 500 nM.

`COc1ccc(-c2cnc3nc(N)nc(N4CCN(C(=O)Oc5ccc(Cl)cc5)CC4)c3n2)cc1OC` [Example 94] was tested, and the IC50 [1] was 100 nM and the IC50 [2] was 90 nM.

Molecule `COc1ccc(-c2cnc3nc(N)nc(N4CCN(c5ccccc5OC)CC4)c3n2)cc1OC` [Example 160, 2-amino-4-((2-methoxyphenyl)-piperazin-1-yl)-6-(3,4-dimethoxyphenyl)pteridine] has an IC50 [1] of 3800 nM and an IC50 [2] of 420 nM.

Molecule `COc1ccc(-c2cnc3nc(N)nc(N4CCN(C(=O)c5ccccc5OC)CC4)c3n2)cc1OC` [Example 42, 2-amino-4-[N-(2-methoxybenzoyl)-piperazin-1-yl]-6-(3,4-dimethoxy-phenyl)pteridine] has an IC50 [1] of 400 nM and an IC50 [2] of 100 nM.

Work on `COc1ccc(-c2cnc3nc(N)nc(N4CCN(C(=O)c5ccncc5)CC4)c3n2)cc1OC` [Example 19, 2-amino-4-[(N-isonicotinoyl)-piperazin-1-yl]-6-(3,4-dimethoxyphenyl)pteridine] yielded an IC50 [1] of 2400 nM and an IC50 [2] of 60 nM.

`COc1ccc(-c2cnc3nc(N)nc(N4CCN(c5ccc([N+](=O)[O-])cc5C(F)(F)F)CC4)c3n2)cc1OC` [Example 186, 2-amino-4-[2-trifluoromethyl-4-nitro-phenyl-piperazin-1-yl)-6-(3,4-dimethoxyphenyl)pteridine] showed an IC50 [1] of 5000 nM and an IC50 [2] of 400 nM.

Molecule `COc1ccc(-c2cnc3nc(N)nc(N4CCN(C(=O)Oc5ccccc5Cl)CC4)c3n2)cc1OC` [Example 96, 2-amino-4-[N-(2-chloro)-phenoxy-carbonyl-piperazin-1-yl]-6-(3,4-dimethoxyphenyl)pteridine] has an IC50 [1] of 150 nM and an IC50 [2] of 10 nM.

`COc1ccc(-c2cnc3nc(N)nc(N4CCN(C(=O)COCc5ccccc5)CC4)c3n2)cc1OC` [Example 28, 2-amino-4-[(N-benzyloxyacetyl)-piperazin-1-yl]-6-(3,4-dimethoxyphenyl)pteridine] gave an IC50 [1] of 30 nM and an IC50 [2] of 500 nM.

`COc1ccc(-c2cnc3nc(N)nc(N4CCN(Cc5cccc6ccccc56)CC4)c3n2)cc1OC` [Example 158, 2-amino-4-((1-naphtylmethyl)-piperazin-1-yl)-6-(3,4-dimethoxyphenyl)pteridine] showed an IC50 [1] of 800 nM and an IC50 [2] of 700 nM.

With `COc1ccc(-c2cnc3nc(N)nc(N4CCN(C(=O)Nc5ccc(C#N)cc5)CC4)c3n2)cc1OC` [Example 102, 2-amino-4-(N-4-cyanophenylcarbamoyl-piperazin-1-yl)-6-(3,4-dimethoxyphenyl)pteridine] the IC50 [1] was 74 nM and the IC50 [2] was 630 nM.

In the case of `COc1ccc(-c2cnc3nc(N)nc(N4CCN(C(=S)Oc5ccccc5)CC4)c3n2)cc1OC` [Example 51, 2-amino-4-[(N-phenoxythiocarbonyl)-piperazin-1-yl]-6-(3,4-dimethoxy-phenyl)pteridine], the IC50 [1] is reported as 300 nM and the IC50 [2] is reported as 40 nM.

`COc1ccc(-c2cnc3nc(N)nc(N4CCN(C(=O)NCc5ccc(F)cc5)CC4)c3n2)cc1OC` [Example 105, 2-amino-4-(N-4-fluorobenzylcarbamoyl-piperazin-1-yl)-6-(3,4-dimethoxyphenyl)pteridine] was tested, and the IC50 [1] was 37 nM and the IC50 [2] was 700 nM.

In the case of `COc1ccc(-c2cnc3nc(N)nc(N4CCN(C(=O)[C@@H](N)Cc5ccccc5)CC4)c3n2)cc1OC` [Example 60, 2-amino-4-[N-(2-(S)-amino-3-phenylpropionyl)-piperazin-1-yl]-6-(3,4-dimethoxy-phenyl)pteridine], the IC50 [1] is reported as 4100 nM and the IC50 [2] is reported as 2500 nM.

With “2-amino-6-(3,4-dimethoxyphenyl)-4-((tetrahydrofurfuryl)-piperazin-1-yl)pteridine [Example 169]” the IC50 [1] was 800 nM and the IC50 [2] was 300 nM.

`COc1ccc(-c2cnc3nc(N)nc(N4CCN(C(=O)N(C)c5ccc(C)cc5)CC4)c3n2)cc1OC` [Example 119, 2-amino-4-(N-methyl-N-tolyl-carbamoyl-piperazin-1-yl)-6-(3,4-dimethoxyphenyl)pteridine] gave an IC50 [1] of 300 nM and an IC50 [2] of 260 nM.

`COc1ccc(-c2cnc3nc(N)nc(N4CCN(C(=O)Oc5ccc(C)cc5)CC4)c3n2)cc1OC` [Example 90, 2-amino-4-[(N-4-methyl-phenoxy-carbonyl)-piperazin-1-yl]-6-(3,4-dimethoxyphenyl)pteridine] was tested, and the IC50 [1] was 58 nM and the IC50 [2] was 40 nM.

`COc1ccc(-c2cnc3nc(N)nc(N4CCN(C(=O)c5ccc(C#N)cc5)CC4)c3n2)cc1OC` [Example 16, 2-amino-4-[N-(4-cyanobenzoyl)-piperazin-1-yl]-6-(3,4-dimethoxyphenyl)pteridine] was tested, and the IC50 [1] was 800 nM and the IC50 [2] was 550 nM.

Molecule `COc1cc(-c2cnc3nc(N)nc(N4CCN(c5ccc(C)cc5)CC4)c3n2)ccc1O` [Example 206] has an IC50 [1] of 500 nM and an IC50 [2] of 700 nM.
